Source: patent publication US7196063B1, “Peptides and pharmaceutical compositions comprising same” (NST NeuroSurvival Technologies Ltd., priority 1999, dated 2007)
“Also recorded” adds a separate entry of the source.

Assays:
[1] = tested on: HUVEC cells; experiment: Binding to endothelial HUVEC cells by FACS analysis; format: cell-based, Human
Protocol: Binding detection was done using flow cytometric analysis to populations of HUVEC cells.
HUVEC (CC-2517, obtained from Clonetics, Walkersville, Md.) were grown on tissue culture flasks in Endothelial cell medium (EGM-2 Bulletkit, CC 3162, Clonetics). Mid-confluent cultures were harvested using Trypsine/EDTA solution (CC-5012, Clonetics). The cells were rinsed twice with TBS containing 2% BSA and kept on ice. Samples of 10^6 cells were tested for binding.
Cells were washed in 1 ml of TBS-BSA and centrifuged as before and then suspended in 100 μl of TBS-BSA containing streptavidin conjugated to fluorescein (FITC) for detection of the bound biotinylated compound. […] Thereafter, 400 μl of TBS-BSA were added and cells were entrifuged and re-suspended in 400 μl of TBS and taken for FACS analysis.

[2] = tested on: HUVEC cells; experiment: Cell-ELISA: binding of anti β2GPI antibodies to HUVEC cells; format: cell-based, Human
Protocol: Human β2GPI is a plasma phospholipid binding protein that is required for the binding of autoantibodies in sera from patients with APS to cardiolipin (McNeil H P et al., 1990 Proc. Natl. Acad. Sci. 87, 4120–4124). […] Anti β2GPI antibodies are present in sera of APS patients. […] For cell-ELISA tests, HUVEC cells (at 40,000/well), were plated on 96 well tissue culture plates (Nunc) in 200 μl of the culture medium, and allowed to grow for 18–22 hours. Following 2 washes with Hepes buffer (10 mM Hepes pH 8, 140 mM NaCl) and 5 min incubation with the culture medium, the wells were incubated for 3 hr with 10% of normal plasma in PBS (as a source of β2 GPI protein), supplemented with 1/500 of goat anti-human Apolipoprotein-H (β2 GPI) (Affinity biologicals, PA). Parallel control wells were incubated with 10% of normal plasma from Ilex. Serial dilutions of NST500 compounds were prepared in plasma/PBS. Washes and development were as described for anti CL ELISA.
As presented in FIG. 5B, in the presence of plasma and absence of NST500, HUVEC cells supported binding of anti β2GPI to their surface. However, displacement of anti β2GPI by NST500 compounds in this system occurred in a concentration dependent manner, similar to the results obtained with CL.

[3] = tested on: BeWo cells; experiment: Binding to single trophoblast BeWo cells, fluorescent microscopy; format: cell-based, Human
Protocol: The Human choriocarcinoma cell line BeWo that express low levels of PS on its plasma membrane (Rote N S et al., 1995, American J. of Reproductive Immunology 33, 114–121), was obtained from ECACC, cat # 86082803 and maintained in Ham's F12+ medium (01095-1A, Bet-Haemek, Israel). The medium was supplemented with 2mM of L-Glutamine; 100 units/ml of penicillin; 100 μg/ml of streptomycin, and 10% fetal calf serum (Bet-Haemek). The cells were passaged using 0.05% trypsine/EDTA (03-054-1B, Bet-Haemek,).

[4] = tested on: HUVEC cells; experiment: Thrombin generation by HUVEC cells; format: cell-based, Human
From the text: In vivo, vascular endothelial cells are known to catalyze the formation of thrombin, due to expression of PS on their plasma membrane, at which pro-coagulant complexes are assembled (Van Hardee W L et al., 1994, Biochem J. 302, 305–312). Endothelial cells (EC) play an active role in determining the pro-coagulant/anti-coagulant balance in the vascular system (Gimborne M A et al., 1995, Ann. N. Y. Acad Sci 748, 122–132). Perturbed endothelial cells dramatically increase their pro-coagulant state. […] (FIG. 4D). When HUVEC cells (1.5×10^5) were incubated with the S-2366 substrate, thrombin generation was evident after a lag time of 12.5 minutes, which reflects the time required to assemble a functional complex on the HUVEC surface.
The effect of NST516 compound on HUVEC mediated-thrombin generation was studied.

[5] = tested on: apoptotic hepatocytes; format: in vivo, mice; details: mouse, in vivo
Protocol: Massive hepatic apoptosis can be induced within 1–2 hr in mice following intravenous injection of anti-Fas antibody (Ogasawara J. et al., 1993, Nature, 364, 806–809). […] Five-weeks-old male BALB/c mice were injected intravenously with 10 μg/animal of purified hamster anti-Fas mAb (Jo2, PharMingen, San Diego, Calif.) using the model described by Ogasawara et. al. (Nature, 1993, 364, 806–809). […] Injections were performed at different time intervals between 5 min–2 hr after antibody treatment. […] All animals were killed 2 hr after administration of antibody followed by organ removal. Heart, lung and liver were collected. Liver were sectioned transversely across the mid-portion of each lobe; organs were fixed in phosphate-buffered formalin for histological and immunohisto-chemical analyses.
Formalin fixed paraffin-embedded tissues were sectioned (5 μm) for staining with Hematoxylin/Eosin or other techniques. Endogenous peroxidase activity was blocked by incubation with 3% H2O2.
After washing with PBS, staining was developed with 3,3-diaminobenzidine tetrahydrochloride (DAB), and counterstained with Hematoxylin.
Liver sections from different lobes were used for detection of stained apoptotic cells compared to normal cells. Using light microscopy (×400), twenty fields of stained cells were evaluated. A ratio between the number of stained apoptotic hepatocytes versus stained normal hepatocytes in the field was defined. The stained cell's score (%) corresponds to the mean of the values for the twenty evaluated fields.
The percentage of apoptotic cells in the fields was estimated by evaluating parallel sections stained with Hematoxylin/Eosin. Analysis was performed blindly, since the pathologist performing the histological evaluation was unaware of the assignment of mice to the treatment or control group.
To quantitate the microscopic examination of the pharmacokinetics studies, the number of stained cells from 20 microscopic fields was counted.

[6] = molecular target: T1, thrombin (Homo sapiens, UniProt P00734); experiment: Direct effect on thrombin activity in vitro; format: biochemical; details: commercially available thrombin and chromogenic substrate; not shown
T1 construct: purchased

In the case of “Myristate-KVSFFCKNKEKKC-K (SEQ ID NO:1) (biotin) [NST513]”, the “binding to HUVEC cells” value ([1]; 500 nM) is reported as “strong binding”, the “cells FITC positive” value ([1]; 500 nM) is reported as “About 70%” and the “fraction of HUVEC cells labeled” value ([1]; 250 μM) is reported as “about 50%”. For the same substance, the “less potent than NST516 in blocking anti β2 GPI binding” value [2] was 50%, the “binding to BeWo cells” value [3] was “Typical membrane labeling is observed; also recorded: Binding of the compound to the whole population of BeWo cells was demonstrated” and the “delay in thrombin generation” value [4] was 2.5 min. The “thrombin generation by HUVEC cells” value [4] was “dramatic inhibition of thrombin generation; also recorded: fully block thrombin generation; also recorded: slight inhibition of thrombin generation; also recorded: further delayed the lag period; also recorded: total blockage of thrombin formation”, the “thrombin generation by HUVEC cells, dose response” value [4] was “dose dependent inhibition of thrombin generation” and the “increase in number of stained apoptotic cells as compared to non specific staining of non-apoptotic cells” value [5] was 3 times. The “ratio of apoptotic stained cells vs non-apoptotic cells” value [5] was 5 fold, the “staining of normal hepatocytes” value [5] was “never observed” and the “staining of apoptotic hepatocytes in anti-Fas treated mice” value ([5]; iv) was “observed at cytoplasma and cytoplasmatic border of apoptotic hepatocytes”. The “direct effect on thrombin activity” value [6] was “no direct inhibitory effect on thrombin activity”.
